For one compound, EC50 results are on record in US20080255207A1, “5-Thioxo-1,5-Dihydro-2H-Pyrrol-2-One Derivatives As Liver X Receptor Modulators” (ASTRAZENECA AB, priority 2005, published 2008).

One assay addresses T1, human LXRalpha (Homo sapiens, UniProt Q13133).
T1 construct: human LXRalpha (amino acid 205-447); expressed in transfected cells; host or cells: U2/OS osteosarcoma cells, electroporated with pSGGAL-LXRalpha
T1 sequence (Q13133 205-447): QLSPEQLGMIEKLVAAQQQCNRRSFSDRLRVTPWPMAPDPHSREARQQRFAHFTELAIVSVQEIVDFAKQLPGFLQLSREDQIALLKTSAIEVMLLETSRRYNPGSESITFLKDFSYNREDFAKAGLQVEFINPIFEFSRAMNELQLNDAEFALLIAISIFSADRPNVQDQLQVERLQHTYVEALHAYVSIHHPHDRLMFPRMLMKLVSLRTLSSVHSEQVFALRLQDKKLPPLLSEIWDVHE
As to the kind of experiment: Transactivation (reporter gene) assay, GAL4-LXRalpha LBD luciferase in U2/OS cells. It counts as cell-based. The note with it: U2/OS osteosarcoma cells, 48 h; T0901317 at 1 μM as 100% control. The procedure:
(§1) Expression vectors were prepared by inserting the ligand binding domain cDNA (complementary DNA) of human LXRalpha (amino acid 205447) and LXRbeta (amino acid 216-461) in frame with, 3′ to the yeast GAL4 transcription factor DNA binding domain and the nuclear localization signal from the T-antigen of Polyoma Virus in the eucaryotic expression vector pSG5 (Stratagene). The resulting expression vectors pSGGAL-LXRalpha and pSGGAL-LXRbeta were used in cotransfection experiments together with the pGL3 luciferase reporter plasmid containing a minirnal SV40 promoter and five copies of the UAS GAL4 recognition site. 2.5 μg pSGGAL-LXRalpha or beta were mixed with 25 μg pGL3 5×UAS and 22.5 μg pBluscript in 0.95 mL ice cold PBS containing approx. 4-9 milj. U2/OS osteosarcoma cells. After a five minute incubation on ice the cell/DNA mixture was electroporated in 0.4 cm cuvettes at 960 μF, 230 V using a BioRad electroporator and diluted to 0.32 milj cells/mL in complete DMEM (Dulbecco's Modified Eagle Medium) medium (Gibco 31966-021). Cells from at least two electroporations were pooled in order to avoid variations between different electroportations. […] Luciferase activity was measured using the “Luminescence 384 protocol” in the Wallac Victor reader after 15 min. incubation at room temperature. […]

Another assay deals with T2, human LXRbeta (Homo sapiens, UniProt P55055).
T2 construct: LXRbeta (amino acid 216-461); expressed in transfected cells; host or cells: U2/OS osteosarcoma cells, electroporated with pSGGAL-LXRbeta
T2 sequence (P55055 215-460 limits assumed): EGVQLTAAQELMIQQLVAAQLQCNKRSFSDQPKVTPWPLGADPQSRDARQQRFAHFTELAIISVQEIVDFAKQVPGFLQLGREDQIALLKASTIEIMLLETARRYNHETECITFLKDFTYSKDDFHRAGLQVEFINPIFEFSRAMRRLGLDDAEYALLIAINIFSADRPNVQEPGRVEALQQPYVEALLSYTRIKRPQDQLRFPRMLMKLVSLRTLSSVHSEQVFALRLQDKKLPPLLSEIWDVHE
As to the kind of experiment: Transactivation (reporter gene) assay, GAL4-LXRbeta LBD luciferase in U2/OS cells. It counts as cell-based. The note with it: U2/OS osteosarcoma cells, 48 h; T0901317 at 1 μM as 100% control. The protocol:
as §1

Molecules are shown by their SMILES.

On to `Nc1ccc(CN2C(=O)C(Nc3ccc(OC(F)F)cc3)=C(c3ccccc3)C2=S)cn1` [Example 1, 1-[(6-aminopyridin-3-yl)methyl]-3-{[4-(difluoromethoxy)phenyl]amino}-4-phenyl-5-thioxo-1,5-dihydro-2H-pyrrol-2-one], for which the EC50 at human LXRalpha is 0.28 µM; at human LXRbeta, 0.32 µM.
